Key:
human Fab of κ-type = test: STD-NMR binding test (saturation transfer difference NMR screening); set-up: key to NMR signal, conc 1 / NMR signal, conc 2 / NMR signal, conc 3 / NMR signal, Conc 1 (directed library) / NMR signal, Conc 2 (directed library): 0 no; 1 weak; 2 strong signal; conditions: for NMR signal, conc 2: 100 nM protein; for NMR signal, conc 2 / NMR signal, conc 1 / NMR signal, conc 3: 0.5 mM ligand; for NMR signal, conc 1: 500 nM protein; for NMR signal, conc 3: 20 nM protein; for NMR signal at the first dilution of antibody concentration: conc 2, 100 nM; for binder designation from NMR screening: from signals at 500, 100 and 20 nM antibody
Protocol: (§1) All NMR experiments were performed at 298 K on a Bruker Avance 500 MHz spectrometer. The 1D saturation transfer difference method (STD-NMR) was used as screening assay (Mayer M. and Meyer B. 1999. Characterisation of Ligand Binding by Saturation Transfer Difference NMR Spectroscopy. Angew. Chem., Int. Ed. 38: 1784-1788). […] The two spectra are recorded in the same experiment in an interleaved fashion. […] It has been shown that the method is capable of detecting ligands with dissociation constants between 10^−3 and 10^−8 M (Mayer M. and Meyer B. 1999. Characterisation of Ligand Binding by Saturation Transfer Difference NMR Spectroscopy. Angew. Chem, Int. Ed. 38: 1784-1788). The strength of the STD-NMR signal depends upon several factors including protein size, offset and duration of the on-resonance irradiation, the dissociation rate constant and the excess of ligand. The STD-NMR method is advantageous in that the detection limits can be tuned for binding by varying the protein concentration while keeping the ligand concentration constant. Under such conditions, at higher protein concentrations the weak to medium binders are detected, whereas at lower protein concentrations only medium binders are detected. For instance, it has been shown before for another enzyme system that both μM and mM binders were detected at a protein concentration of 35 μM whereas only μM binders were detected at protein concentrations of 1 μM and 100 nM (Peng J. W., Lepre C. A., Fejzo J., Abdul-Manan N. and Moore J. M. 2001, Nuclear Magnetic Resonance-Based Approaches for Lead Generation in Drug Discovery, Methods in Enzymology. 338: 202-230). It should be noted that the signal intensity at one specific protein concentration should not be taken as a direct measure of the binding strength. […] On the other hand the signal of the μM binder became even stronger than before (Peng J. W., Lepre C. A., Fejzo J., Abdul-Manan N. and Moore J. M. 2001, Nuclear Magnetic Resonance-Based Approaches for Lead Generation in Drug Discovery, Methods in Enzymology. 338: 202-230).
(§2) Here, three different antibody concentrations were used, namely, 0.5 μM, 100 nM and 20 nM. The antibody used was a human Fab of κ-type. In all cases ligands were tested one-by-one. On-resonance irradiation was set at 0 ppm and off-resonance irradiation was set at 40 ppm. Irradiation time in each scan was 2 s and 16K data points were collected with 1024 scans in total. Compounds for testing were dissolved in DMSOd6 to a concentration of 50 mM and 5 μL of the concentrated ligand solution was added to 495 μL buffer solution. The samples thus consisted of 0.5 mM ligand, 20 mM phosphate buffer, 100 mM NaCl and […] in D2O at pD 7.5, uncorrected reading on pH-meter. Compounds were initially tested for binding with 0.5 μM antibody. Interesting ligands were further tested with protein concentrations of 100 or 20 nM. A one-dimensional ^1H-spectrum was acquired first as reference spectrum and subsequently a saturation transfer difference (STD) spectrum was acquired. Each analysis took 60 minutes on the spectrometer.

[1] = STD-NMR control in the absence of target antibody; set-up: key to NMR signal, ctrl: 0 no; 1 weak; 2 strong signal; conditions: for NMR signal, ctrl: absence of target antibody
Protocol: as §1, §2
These compounds were designated as weak binders. […] Of these, three compounds AB—0000860, AB—0000910 and AB—0001250 showing a clear signal (2 in table 1) were further analysed at a second dilution of antibody concentration (conc 3 in table 1).

SMILES	NMR signal, conc 2 (human Fab of κ-type)	NMR signal, conc 1 (human Fab of κ-type)	NMR signal, ctrl [1]	NMR signal, conc 3 (human Fab of κ-type)	other results
CC(C)=CC1=C(O)C(=O)c2ccccc2C1=O [AB_0001040, 2-hydroxy-3-(2-methyl-1-propenyl)-1,4-naphthoquinone]	1	1	0	–	–
CN(C)C(=O)N(C)c1ccc(Cl)c(Cl)c1 [AB_0001250, 1-(3,4-dichlorophenyl)-1,3,3-trimethylurea]	2	2	0	1	NMR signal at the first dilution of antibody concentration (human Fab of κ-type): clear signal; binder designation from NMR screening (human Fab of κ-type): strong binders
N#CCc1ccc(C(=O)c2ccccc2F)s1 [AB_0001010, 2-[5-(2-fluorobenzoyl)-2-thienyl]acetonitrile]	2	2	1	2	binder designation from NMR screening (human Fab of κ-type): false positive; NMR signal in the absence of target antibody ([1]; no antibody): positive NMR signal
COc1ccc(CC(C)=O)cc1Br [AB_0000910, 3-bromo-4-methoxyphenylacetone]	2	2	0	0	NMR signal at the first dilution of antibody concentration (human Fab of κ-type): clear signal; NMR signal at a second dilution of antibody concentration (human Fab of κ-type; conc 3, 20 nM): did not show any signal
O=C1CN(c2ccccc2)C(=O)N1c1ccccc1 [AB_0000860, 1,3-diphenylimidazolidine-2,4-dione]	2	2	0	1	NMR signal at the first dilution of antibody concentration (human Fab of κ-type): clear signal; binder designation from NMR screening (human Fab of κ-type): strong binders
c1ccc(-c2nnc3ccccc3n2)cc1 [AB_0000600, 3-phenyl-1,2,4-benzotriazine]	1	1	0	–	–
Clc1ccc(OCc2noc(CSc3ccccn3)n2)cc1 [AB_0001290, 3-[(4-chlorophenoxy)methyl]-5-[(2-pyridylthio)methyl]-1,2,4-oxadiazole]	1	2	0	–	–
OCC(Oc1ccccc1)c1ccccc1 (stereo not shown) [AB_0000810, 2-phenoxy-2-phenyl-1-ethanol]	1	2	0	–	–
COC(=O)C1OC1c1cc(Cl)ccc1OC (stereo not shown) [AB_0001240, methyl 3-(5-chloro-2-methoxyphenyl)-2,3-epoxypropionate]	1	1	0	–	–
Sc1nnc(-c2csc(-c3ccccc3)n2)o1 [AB_0000760, 5-(2-phenyl-1,3-thiazol-4-yl)-1,3,4-oxadiazol-2-ylhydrosulfide]	0	1	–	–	–
Fc1cc(F)cc(Cc2nc(-c3cccs3)no2)c1 [AB_0001020, 5-(3,5-difluorobenzyl)-3-(2-thienyl)-1,2,4-oxadiazole]	0	1	–	–	–
COC(=O)CCCN(C)C(=O)N(C)c1ccc(Cl)c(Cl)c1 [AB_0001255, 4-[3-(3,4-Dichloro-phenyl)-1,3-dimethyl-ureido]-butyric acid methyl ester]	–	–	–	–	NMR signal, Conc 2 (directed library) (human Fab of κ-type; 100 nM antibody): 2; NMR signal, Conc 1 (directed library) (human Fab of κ-type; 500 nM antibody): 2; interaction with the antibody in NMR screening of directed library (human Fab of κ-type; two higher antibody concentrations): strongest binding
